The target of this assay is Nav 1.7 (Homo sapiens (Human), UniProt Q15858). The assay can be described thus: Nav 1.7 in vitro PX assay (PatchXpress whole cell voltage clamp). It counts as cell-based. The following applies: 293 cells, human Nav1.7, partially inactivated state; read-out: Nav1.7 PX IC50 IP. As to the method:
Nav 1.7 In Vitro PX Assay
293 cells stably transfected with human Nav1.7 were recorded in whole cell voltage clamp mode with the PatchXpress automated electrophysiology system (Molecular Devices, LLC, Sunnyvale, Calif.). Compound effects were measured on a partially inactivated state of the sodium channel. Cells were clamped to a holding potential yielding 20 to 50% inactivation. To elicit sodium current, channels were activated by pulsing to −10 mV for 20 msec. […] A single concentration of test compound was applied to cells for a duration of 3 minutes. Peak sodium current was measured at the end of the compound addition period to determine percent inhibition. Three to five cells were tested per concentration, and IC50 curves were fitted to percent inhibition as a function of concentration.

In US9012443B2 (Amgen Inc., priority 2011, dated 2015) one finds IC50 data, which are given here for 36 compounds.

Structures can show the parent of a compound that is named as a salt.

Chain of Nav 1.7 (Q15858 whole entry): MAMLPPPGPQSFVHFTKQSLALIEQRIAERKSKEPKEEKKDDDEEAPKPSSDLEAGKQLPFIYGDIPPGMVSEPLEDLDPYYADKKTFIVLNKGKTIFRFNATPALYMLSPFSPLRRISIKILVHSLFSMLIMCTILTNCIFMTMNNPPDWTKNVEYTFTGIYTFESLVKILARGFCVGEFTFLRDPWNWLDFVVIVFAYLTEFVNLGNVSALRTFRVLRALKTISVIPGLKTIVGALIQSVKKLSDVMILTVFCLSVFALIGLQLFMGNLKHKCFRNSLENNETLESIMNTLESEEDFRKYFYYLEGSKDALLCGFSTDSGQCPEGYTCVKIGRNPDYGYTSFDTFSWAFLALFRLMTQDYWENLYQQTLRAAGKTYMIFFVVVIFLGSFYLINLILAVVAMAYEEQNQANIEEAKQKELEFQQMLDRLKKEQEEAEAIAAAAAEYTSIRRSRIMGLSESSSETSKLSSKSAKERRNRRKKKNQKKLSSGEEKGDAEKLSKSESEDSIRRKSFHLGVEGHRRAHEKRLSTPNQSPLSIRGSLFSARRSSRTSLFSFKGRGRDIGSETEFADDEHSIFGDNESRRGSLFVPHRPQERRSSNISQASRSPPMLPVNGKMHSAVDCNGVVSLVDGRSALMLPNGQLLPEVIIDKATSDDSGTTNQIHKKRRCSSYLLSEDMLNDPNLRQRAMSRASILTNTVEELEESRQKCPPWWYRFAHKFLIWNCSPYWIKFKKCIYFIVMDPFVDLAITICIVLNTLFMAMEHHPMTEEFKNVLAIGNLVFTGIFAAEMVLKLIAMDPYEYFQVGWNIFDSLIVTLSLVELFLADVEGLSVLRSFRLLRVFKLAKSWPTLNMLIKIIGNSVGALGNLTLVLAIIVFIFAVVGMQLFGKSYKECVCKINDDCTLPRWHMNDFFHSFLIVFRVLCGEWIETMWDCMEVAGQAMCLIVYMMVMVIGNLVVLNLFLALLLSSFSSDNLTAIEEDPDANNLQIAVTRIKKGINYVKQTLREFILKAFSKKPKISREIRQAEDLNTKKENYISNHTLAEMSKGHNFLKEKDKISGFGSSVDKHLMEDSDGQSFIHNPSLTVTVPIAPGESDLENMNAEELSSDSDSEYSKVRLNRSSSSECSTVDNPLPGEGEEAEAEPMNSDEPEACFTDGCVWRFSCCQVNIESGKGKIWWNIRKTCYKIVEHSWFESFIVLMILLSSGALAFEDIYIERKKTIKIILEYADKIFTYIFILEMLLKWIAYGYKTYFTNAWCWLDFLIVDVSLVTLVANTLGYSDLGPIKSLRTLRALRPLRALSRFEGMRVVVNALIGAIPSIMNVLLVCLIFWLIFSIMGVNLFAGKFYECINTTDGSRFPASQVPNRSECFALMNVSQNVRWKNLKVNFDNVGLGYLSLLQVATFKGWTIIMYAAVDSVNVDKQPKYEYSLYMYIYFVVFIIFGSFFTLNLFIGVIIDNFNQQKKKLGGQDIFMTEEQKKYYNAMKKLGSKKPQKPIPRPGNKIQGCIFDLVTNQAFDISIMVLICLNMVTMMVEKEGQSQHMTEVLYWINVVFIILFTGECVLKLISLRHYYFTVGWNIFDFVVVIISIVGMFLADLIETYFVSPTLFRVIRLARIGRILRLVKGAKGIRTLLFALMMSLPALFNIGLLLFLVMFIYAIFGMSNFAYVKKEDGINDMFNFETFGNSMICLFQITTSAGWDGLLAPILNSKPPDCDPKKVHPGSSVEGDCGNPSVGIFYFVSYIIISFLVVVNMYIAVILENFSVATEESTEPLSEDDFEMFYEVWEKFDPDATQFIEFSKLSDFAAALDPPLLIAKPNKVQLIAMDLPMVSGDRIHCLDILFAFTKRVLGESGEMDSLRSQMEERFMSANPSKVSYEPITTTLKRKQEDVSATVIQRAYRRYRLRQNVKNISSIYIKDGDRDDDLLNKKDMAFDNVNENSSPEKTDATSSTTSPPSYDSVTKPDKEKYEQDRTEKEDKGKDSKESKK

For orientation: IC50 means the point on the concentration scale where inhibition reaches its midpoint. For `COc1cc(-c2cnc(F)c(C)c2)ccc1-c1nccc2cc(S(=O)(=O)Nc3ccncn3)ccc12` [Example 481, 1-(4-(6-FLUORO-5-METHYLPYRIDIN-3-YL)-2-METHOXYPHENYL)-N-(PYRIMIDIN-4-YL)ISOQUINOLINE-6-SULFONAMIDE], the half-inhibitory concentration (IC50) was found to be 788 nM. The figure for `COc1cc(C(F)(F)F)ccc1-c1ccnc2cc(S(=O)(=O)Nc3nccs3)ncc12` [Example 294, 4-(2-METHOXY-4-(TRIFLUOROMETHYL)PHENYL)-N-(THIAZOL-2-YL)-1,6-NAPHTHYRIDINE-7-SULFONAMIDE] is 2500 nM. For `COc1cc(C#N)ccc1-c1ccnc2cc(S(=O)(=O)Nc3ccncn3)ccc12` [Example 280, 4-(4-CYANO-2-METHOXYPHENYL)-N-(PYRIMIDIN-4-YL)QUINOLINE-7-SULFONAMIDE], the IC50 was determined as 4450 nM. As to `O=S(=O)(Nc1nccs1)c1ccc2c(-c3ccc(F)cc3Oc3ccccn3)nccc2c1` [Example 191, 1-(4-FLUORO-2-(PYRIDIN-2-YLOXY)PHENYL)-N-(THIAZOL-2-YL)ISOQUINOLINE-6-SULFONAMIDE], the IC50 worked out at 13900 nM.

For `COC[C@H]1CCCN1c1ncnc2cc(S(=O)(=O)Nc3nccs3)ccc12` [Example 534, (R)-4-(2-(METHOXYMETHYL)PYRROLIDIN-1-YL)-N-(THIAZOL-2-YL)QUINAZOLINE-7-SULFONAMIDE], the 50% inhibitory concentration (IC50) turned out to be 29300 nM. As for `COc1cc(-c2nccs2)ccc1-c1nccc2cc(S(=O)(=O)Nc3ccncn3)ccc12` [Example 456, 1-(2-METHOXY-4-(THIAZOL-2-YL)PHENYL)-N-(PYRIMIDIN-4-YL)ISOQUINOLINE-6-SULFONAMIDE], the figure is 4700 nM; as for `N#Cc1cc(C(F)(F)F)ccc1-c1nccc2cc(S(=O)(=O)Nc3nccs3)ccc12` [Example 386, 1-(2-CYANO-4-(TRIFLUOROMETHYL)PHENYL)-N-(THIAZOL-2-YL)ISOQUINOLINE-6-SULFONAMIDE], 1390 nM; as for `COc1cc(-c2cc(F)cc(F)c2)ccc1-c1nccc2cc(S(=O)(=O)Nc3nnco3)ccc12` [Example 372, 1-(3′,5′-DIFLUORO-3-METHOXY-[1,1′-BIPHENYL]-4-YL)-N-(1,3,4-OXADIAZOL-2-YL)ISOQUINOLINE-6-SULFONAMIDE], 16600 nM.

Take `COc1ccccc1-c1cncc2cc(S(=O)(=O)Nc3ccncn3)ccc12` [Example 287, 4-(2-METHOXYPHENYL)-N-(PYRIMIDIN-4-YL)ISOQUINOLINE-7-SULFONAMIDE HYDROCHLORIDE]: the half-maximal inhibitory concentration (IC50) is 4150 nM. As for `COc1cc(F)ccc1-c1cncc2cc(S(=O)(=O)Nc3nccs3)ccc12` [Example 290, 4-(4-FLUORO-2-METHOXYPHENYL)-N-(THIAZOL-2-YL)ISOQUINOLINE-7-SULFONAMIDE], the figure is 600 nM; as for `N#Cc1ccccc1-c1ncc(F)c2cc(S(=O)(=O)Nc3nccs3)ccc12` [Example 397, 1-(2-CYANOPHENYL)-4-FLUORO-N-(THIAZOL-2-YL)ISOQUINOLINE-6-SULFONAMIDE], 3520 nM. As for `COc1cc(C(F)(F)F)ccc1-c1ccnc2cc(S(=O)(=O)Nc3nccs3)cc(C)c12` [Example 282, 4-(2-METHOXY-4-(TRIFLUOROMETHYL)PHENYL)-5-METHYL-N-(THIAZOL-2-YL)QUINOLINE-7-SULFONAMIDE], the figure is 3290 nM; as for `COc1cc(-c2cccc(F)c2)c(Cl)cc1-c1nccc2cc(S(=O)(=O)Nc3ncns3)ccc12` [Example 331, 1-(2-CHLORO-3′-FLUORO-5-METHOXY-[1,1′-BIPHENYL]-4-YL)-N-(1,2,4-THIADIAZOL-5-YL)ISOQUINOLINE-6-SULFONAMIDE], 23 nM; as for `O=S(=O)(Nc1ncns1)c1ccc2c(N3CCC[C@H]3c3cccnc3)cccc2c1` (single isomer, unassigned) [Example 86], 62.7 nM. For `COc1ncccc1-c1nccc2cc(S(=O)(=O)Nc3nccs3)ccc12` [Example 407, 1-(2-METHOXYPYRIDIN-3-YL)-N-(THIAZOL-2-YL)ISOQUINOLINE-6-SULFONAMIDE], the half-maximal inhibitory concentration (IC50) came to 4970 nM. For `Cn1cc(-c2cc(F)ccc2-c2nccc3cc(S(=O)(=O)Nc4nccs4)ccc23)cn1` [Example 129, 1-(4-FLUORO-2-(1-METHYL-1H-PYRAZOL-4-YL)PHENYL)-N-(THIAZOL-2-YL)ISOQUINOLINE-6-SULFONAMIDE TRIFLUOROACETATE], the half-inhibitory concentration (IC50) was 8000 nM. With `N#CC(F)Oc1cc(F)ccc1-c1nccc2cc(S(=O)(=O)Nc3nccs3)ccc12` (stereo not drawn) [Example 416, 1-(2-(CYANOFLUOROMETHOXY)-4-FLUOROPHENYL)-N-(THIAZOL-2-YL)ISOQUINOLINE-6-SULFONAMIDE], the IC50 was determined as 1220 nM. As for `COc1cc(-c2ccnc(F)c2)ccc1-c1nccc2cc(S(=O)(=O)Nc3ccncn3)ccc12` [Example 474, 1-(4-(2-FLUOROPYRIDIN-4-YL)-2-METHOXYPHENYL)-N-(PYRIMIDIN-4-YL)ISOQUINOLINE-6-SULFONAMIDE], the figure is 2610 nM; as for `COc1cc(-c2cccc(F)c2)c(Cl)cc1-c1nccc2cc(S(=O)(=O)Nc3cnsn3)ccc12` [Example 334, 1-(2-CHLORO-3′-FLUORO-5-METHOXY-[1,1′-BIPHENYL]-4-YL)-N-(1,2,5-THIADIAZOL-3-YL)ISOQUINOLINE-6-SULFONAMIDE], 109 nM; as for `COc1cc(-c2c(C)ccnc2F)ccc1-c1nccc2cc(S(=O)(=O)Nc3ccncn3)ccc12` [Example 480, 1-(4-(2-FLUORO-4-METHYLPYRIDIN-3-YL)-2-METHOXYPHENYL)-N-(PYRIMIDIN-4-YL)ISOQUINOLINE-6-SULFONAMIDE], 2770 nM. On to `COc1cc(-c2cccnc2OC)ccc1-c1nccc2cc(S(=O)(=O)Nc3ccncn3)ccc12` [Example 482, 1-(2-METHOXY-4-(2-METHOXYPYRIDIN-3-YL)PHENYL)-N-(PYRIMIDIN-4-YL)ISOQUINOLINE-6-SULFONAMIDE], for which the half-inhibitory concentration (IC50) turned out to be 778 nM. `O=S(=O)(Nc1nccs1)c1ccc2c(-c3cc(F)ccc3OC(F)F)nccc2c1` [Example 413, 1-(2-(DIFLUOROMETHOXY)-5-FLUOROPHENYL)-N-(THIAZOL-2-YL)ISOQUINOLINE-6-SULFONAMIDE]: the IC50 was 830 nM. Take `O=S(=O)(Nc1nccs1)c1ccc2c(-c3ccc(C(F)(F)F)cc3O)ncnc2c1` [Example 533, 4-(2-HYDROXY-4-(TRIFLUOROMETHYL)PHENYL)-N-(THIAZOL-2-YL)QUINAZOLINE-7-SULFONAMIDE]: the IC50 is 4090 nM. With `COc1cc(C#N)ccc1-c1cncc2cc(S(=O)(=O)Nc3ccncn3)ccc12` [Example 286, 4-(4-CYANO-2-METHOXYPHENYL)-N-(PYRIMIDIN-4-YL)ISOQUINOLINE-7-SULFONAMIDE HYDROCHLORIDE], the half-maximal inhibitory concentration (IC50) was determined as 4220 nM.

As for `COc1cc(-c2cncc(F)c2)ccc1-c1nccc2cc(S(=O)(=O)Nc3ccncn3)ccc12` [Example 475, 1-(4-(5-FLUOROPYRIDIN-3-YL)-2-METHOXYPHENYL)-N-(PYRIMIDIN-4-YL)ISOQUINOLINE-6-SULFONAMIDE], the concentration for half-maximal inhibition (IC50) was found to be 1880 nM. The figure for `COc1cc(C(F)(F)F)ccc1-c1nccc2cc(S(=O)(=O)Nc3nc(C(F)(F)F)cs3)ccc12` [Example 428, 1-(2-METHOXY-4-(TRIFLUOROMETHYL)PHENYL)-N-(4-(TRIFLUOROMETHYL)THIAZOL-2-YL)ISOQUINOLINE-6-SULFONAMIDE] is 4570 nM. As for `COc1cc(C(F)(F)F)ccc1-c1nccc2cc(S(=O)(=O)Nc3ccon3)ccc12` [Example 423], the figure is 1340 nM; as for `COc1ncc(C(F)(F)F)cc1-c1nccc2cc(S(=O)(=O)Nc3nccs3)ccc12` [Example 409, 1-(2-METHOXY-5-(TRIFLUOROMETHYL)PYRIDIN-3-YL)-N-(THIAZOL-2-YL)ISOQUINOLINE-6-SULFONAMIDE], 690 nM.

As to `Cc1cc(C#N)ccc1-c1nccc2cc(S(=O)(=O)Nc3ncns3)ccc12` [Example 359], the IC50 turned out to be 2380 nM. `O=S(=O)(Nc1nccs1)c1ccc2c(-c3ccc(F)cc3C3=CCOC3)nccc2c1` [Example 127, 1-(2-(2,5-DIHYDROFURAN-3-YL)-4-FLUOROPHENYL)-N-(THIAZOL-2-YL)ISOQUINOLINE-6-SULFONAMIDE TRIFLUOROACETATE]: the half-inhibitory concentration (IC50) came out at 2220 nM. Consider `Cc1cnc(F)c(-c2nccc3cc(S(=O)(=O)Nc4nccs4)ccc23)c1` [Example 377, 1-(2-FLUORO-5-METHYLPYRIDIN-3-YL)-N-(THIAZOL-2-YL)ISOQUINOLINE-6-SULFONAMIDE], for which the half-maximal inhibitory concentration (IC50) stood at 24500 nM. On to `COc1cc(C(F)(F)F)ccc1-c1ccnc2cc(S(=O)(=O)Nc3nccs3)c(OC)cc12` [Example 327, 6-METHOXY-4-(2-METHOXY-4-(TRIFLUOROMETHYL)PHENYL)-N-(THIAZOL-2-YL)QUINOLINE-7-SULFONAMIDE], for which the half-inhibitory concentration (IC50) was 2340 nM. As to `COc1cc(-c2ccc(C)nc2)ccc1-c1nccc2cc(S(=O)(=O)Nc3ccncn3)ccc12` [Example 477, 1-(2-METHOXY-4-(6-METHYLPYRIDIN-3-YL)PHENYL)-N-(PYRIMIDIN-4-YL)ISOQUINOLINE-6-SULFONAMIDE], the half-inhibitory concentration (IC50) amounted to 4040 nM. Regarding `O=S(=O)(Nc1nccs1)c1ccc2c(-c3ccc(F)cc3OC3CCOCC3)nccc2c1` [Example 414, 1-(4-FLUORO-2-((TETRAHYDRO-2H-PYRAN-4-YL)OXY)PHENYL)-N-(THIAZOL-2-YL)ISOQUINOLINE-6-SULFONAMIDE], the half-inhibitory concentration (IC50) was 7110 nM. In the case of `COc1cc(F)ccc1-c1ncc(C#N)c2cc(S(=O)(=O)Nc3nccs3)ccc12` [Example 399, 4-CYANO-1-(4-FLUORO-2-METHOXYPHENYL)-N-(THIAZOL-2-YL)ISOQUINOLINE-6-SULFONAMIDE], the half-inhibitory concentration (IC50) amounted to 682 nM. As for `N#CCOc1cc(Cl)ccc1-c1nccc2cc(S(=O)(=O)Nc3ccncn3)ccc12` [Example 376, 1-(4-CHLORO-2-(CYANOMETHOXY)PHENYL)-N-(PYRIMIDIN-4-YL)ISOQUINOLINE-6-SULFONAMIDE 2,2,2-TRIFLUOROACETATE], the figure is 2940 nM.
